Measured values as given in patent US20240108740A1, “THERAPEUTIC COMPOSITIONS INCLUDING SPN10 AND USES THEREOF” (Stealth BioTherapeutics Inc., priority 2022, published 2024).
Residues, ends and D or L forms follow the SMILES beside them.

Assays:
[1] = system: Caco-2 cells (human intestinal epithelial cells); format: in vitro ADME
Protocol: The cellular uptake of [^3H] SPN10(s) (with or without aromatic-cationic peptides) or [^3H] peptide conjugates will be studied using Caco-2 cells (human intestinal epithelial cells), and confirmed using SH-SY5Y (human neuroblastoma), HEK293 (human embryonic kidney) and CRFK (kidney epithelial) cells. Monolayers of cells will be cultured in 12-well plates (5×10^5 cells/well) coated with collagen for 3 days. On day 4, the cells will be washed twice with pre-warmed HBSS, and incubated with 0.2 mL of HBSS containing 250 nM [^3H] peptide conjugates; [^3H] aromatic-cationic peptides (an equivalent molar dose of aromatic-cationic peptide based on the concentration of the aromatic-cationic peptide administered in the peptide conjugate treatment group); [^3H] SPN10(s) (an equivalent molar dose of SPN10 based on the concentration of SPN10 administered in the peptide conjugate treatment group); or SPN10(s) in combination with aromatic-cationic peptides (e.g., an equivalent molar dose of SPN10 based on the concentration of SPN10 administered in the peptide conjugate treatment group and an equivalent molar dose of aromatic-cationic peptide based on the concentration of aromatic-cationic peptide administered in the peptide conjugate treatment group) at 37° C. or 4° C. for various times up to 1 hour. […] The cell lysates will then be transferred to scintillation vials and radioactivity will be counted. To distinguish between internalized radioactivity and surface-associated radioactivity, an acid-wash step will be included. […] Excitation will be performed at 340 nm by means of a UV laser, and emission will be measured at 520 nm. […]

[2] = Example 17: linoleic acid peroxidation induced by ABAP; format: biochemical
Protocol: Linoleic acid peroxidation will be induced using the water-soluble initiator 2,2′-azobis(2-amidinopropane) (ABAP), and lipid peroxidation will be detected by the formation of conjugated dienes, monitored spectrophotometrically at 236 nm (E. Longoni, W. A. Pryor, P. Marchiafava, Biochem. Biophys. Res. Commun. 233, 778-780 (1997)).
5 mL of 0.5 M ABAP and varying concentrations of peptide conjugates; aromatic-cationic peptides (an equivalent molar dose of aromatic-cationic peptide based on the concentration of the aromatic-cationic peptide administered in the peptide conjugate treatment group); SPN10(s) (an equivalent molar dose of SPN10 based on the concentration of SPN10 administered in the peptide conjugate treatment group); or SPN10(s) in combination with aromatic-cationic peptides (e.g., an equivalent molar dose of SPN10 based on the concentration of SPN10 administered in the peptide conjugate treatment group and an equivalent molar dose of aromatic-cationic peptide based on the concentration of aromatic-cationic peptide administered in the peptide conjugate treatment group) will be incubated in 2.4 mL linoleic acid suspension until autoxidation rate becomes constant.

[3] = system: isolated mitochondrial, cultured cells and animal subjects; assay: Mitochondrial reduction potential; settings: in vitro and in vivo
Text: It is anticipated that SPN10(s) (with or without aromatic-cationic peptides) and conjugates will enhance mitochondrial reduction potential in vitro in isolated mitochondrial and in vivo in cultured cells and animal subjects.

## N=C(N)NCCC[C@H](NC(=O)[C@@H](N)Cc1c[nH]c2ccccc12)C(=O)N[C@@H](Cc1c[nH]c2ccccc12)C(=O)N[C@@H](CCCCN)C(N)=O [SPN10, H-L-Trp-L-Arg-L-Trp-L-Lys-NH2] (H-WRWK-NH2)
[1]
  rate of uptake at 4° C. compared to 37° C.: slower
  saturation of uptake by 45 minutes: 76.5%
  saturation of uptake by 1 hour: 86.3%
[2]
  peroxidation of linoleic acid: dose-dependently inhibit the peroxidation of linoleic acid
[3]
  mitochondrial reduction potential: enhance
